Measurements as given in patent US20230085307A1, “PYRIDAZINONE COMPOUND AND HERBICIDE” (NISSAN CHEMICAL CORPORATION, priority 2019, published 2023).

How the values were obtained:
late watergrass [1] = experiment: Test Example 1: herbicidal activity, application before weed generation under submerged conditions (Table 16, symbol A); type: in vivo, late watergrass (Echinochloa oryzicola); conditions: 320 g/ha applied herbicide
In short: (§1)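 Submerged Wagner pots (alluvial soil, 4 cm water) sown with weed seeds and planted with 2.5-leaf rice seedlings; emulsifiable concentrate diluted in water applied to water surface on sowing day. Held in greenhouse at 25-30 °C; injury scored 0-5 by herbicidal rate after three weeks.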

Japanese bulrush [2] = experiment: Test Example 1: herbicidal activity, application before weed generation under submerged conditions (Table 16, symbol B); type: in vivo, Japanese bulrush (Schoenoplectus juncoides); conditions: 320 g/ha applied herbicide
In short: as §1

oval-leafed pondweed [3] = experiment: Test Example 1: herbicidal activity, application before weed generation under submerged conditions (Table 16, symbol C); type: in vivo, oval-leafed pondweed (Monochoria vaginalis); conditions: 320 g/ha applied herbicide
In short: as §1

late watergrass [4] = experiment: Test Example 2: herbicidal activity, application during weed generation under submerged conditions (Table 17, symbol A); type: in vivo, late watergrass (Echinochloa oryzicola); conditions: AAH 320 g/ha; application during weed generation, submerged conditions
In short: (§2)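 In this pot test, flooded alluvial soil (water depth 4 cm) holds all three species sown as a mixture. Once seedlings have one to two leaves, the compound's emulsion, thinned with water to the intended dose, is poured on the water; grading follows after three weeks on the earlier criteria.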

Japanese bulrush [5] = experiment: Test Example 2: herbicidal activity, application during weed generation under submerged conditions (Table 17, symbol B); type: in vivo, Japanese bulrush (Schoenoplectus juncoides); conditions: AAH 320 g/ha; application during weed generation, submerged conditions
In short: as §2

oval-leafed pondweed [6] = experiment: Test Example 2: herbicidal activity, application during weed generation under submerged conditions (Table 17, symbol C); type: in vivo, oval-leafed pondweed (Monochoria vaginalis); conditions: AAH 320 g/ha; application during weed generation, submerged conditions
In short: as §2

barnyard grass [7] = experiment: Test Example 3: herbicidal effect by foliage application, Wagner pot (Table 18, symbol H); type: in vivo, barnyard grass (Echinochloa crus-galli)
In short: (§3)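 Plants were sown in alluvial soil held under 0.1–0.5 cm standing water and grown 14 days in a greenhouse at 25–30 °C. An emulsifiable formulation, water-diluted to the set dose, was then sprayed onto the foliage, and effects were scored three weeks later using previously defined criteria.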

Chinese sprangletop = experiment: Test Example 3: herbicidal effect by foliage application, Wagner pot (Table 18, symbol D); type: in vivo, chinese sprangletop (Leptochloa chinensis)
In short: as §3

rice flat sedge = experiment: Test Example 3: herbicidal effect by foliage application, Wagner pot (Table 18, symbol E); type: in vivo, rice flat sedge (Cyperus iria)
In short: as §3

southern crabgrass [8] = experiment: Test Example 5: herbicidal effect by foliage application, plastic box (Table 20, symbol F); type: in vivo, southern crabgrass (Digitaria ciliaris); conditions: foliage application, 320 g/ha
In short: (§4)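 Plants were sown into sterilized diluvial soil under about 1.5 cm cover and kept in a greenhouse at 25° C. to 30° C. Fourteen days on, foliage received an even spray of the diluted emulsion. Herbicidal or crop effect was judged three weeks afterwards.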

green foxtail [9] = experiment: Test Example 5: herbicidal effect by foliage application, plastic box (Table 20, symbol G); type: in vivo, green foxtail (Setaria viridis); conditions: foliage application, 320 g/ha
In short: as §4

barnyard grass [10] = experiment: Test Example 5: herbicidal effect by foliage application, plastic box (Table 20, symbol H); type: in vivo, barnyard grass (Echinochloa crus-galli); conditions: foliage application, 320 g/ha
In short: as §4

wild oat [11] = experiment: Test Example 5: herbicidal effect by foliage application, plastic box (Table 20, symbol I); type: in vivo, wild oat (Avena fatua); conditions: foliage application, 320 g/ha
In short: as §4

blackgrass [12] = experiment: Test Example 5: herbicidal effect by foliage application, plastic box (Table 20, symbol J); type: in vivo, blackgrass (Alopecurus myosuroides); conditions: foliage application, 320 g/ha
In short: as §4

Italian ryegrass [13] = experiment: Test Example 5: herbicidal effect by foliage application, plastic box (Table 20, symbol K); type: in vivo, Italian ryegrass (Lolium multiflorum); conditions: foliage application, 320 g/ha
In short: as §4

windgrass = experiment: Test Example 5: herbicidal effect by foliage application, plastic box (Table 20, symbol L); type: in vivo, windgrass (Apera spica-venti); conditions: foliage application, 320 g/ha
In short: as §4

velvetleaf [14] = experiment: Test Example 5: herbicidal effect by foliage application, plastic box (Table 20, symbol M); type: in vivo, velvetleaf (Abutilon theophrasti); conditions: foliage application, 320 g/ha
In short: as §4

redroot pigweed [15] = experiment: Test Example 5: herbicidal effect by foliage application, plastic box (Table 20, symbol N); type: in vivo, redroot pigweed (Amaranthus retroflexus); conditions: foliage application, 320 g/ha
In short: as §4

lambsquarters [16] = experiment: Test Example 5: herbicidal effect by foliage application, plastic box (Table 20, symbol O); type: in vivo, lambsquarters (Chenopodium album); conditions: foliage application, 320 g/ha
In short: as §4

chickweed = experiment: Test Example 5: herbicidal effect by foliage application, plastic box (Table 20, symbol P); type: in vivo, common chickweed (Stellaria media); conditions: foliage application, 320 g/ha
In short: as §4

false cleavers [17] = experiment: Test Example 5: herbicidal effect by foliage application, plastic box (Table 20, symbol Q); type: in vivo, false cleavers (Galium spurium); conditions: foliage application, 320 g/ha, evaluated three weeks after application
In short: as §4

persian speedwell = experiment: Test Example 5: herbicidal effect by foliage application, plastic box (Table 20, symbol R); type: in vivo, Persian speedwell (Veronica persica); conditions: foliage application, 320 g/ha
In short: as §4

southern crabgrass [18] = experiment: Test Example 4: herbicidal effect by soil treatment (Table 19, symbol F); type: in vivo, southern crabgrass (Digitaria ciliaris); conditions: amount of applied herbicide 320 g/ha
In short: (§5)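 Pre-emergence style soil spray: seeds under ~1.5 cm sterilized diluvial soil received a uniform coat of emulsion diluted to the predetermined herbicide amount. Greenhouse 25–30° C; readout at week three on previously defined criteria.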

green foxtail [19] = experiment: Test Example 4: herbicidal effect by soil treatment (Table 19, symbol G); type: in vivo, green foxtail (Setaria viridis); conditions: amount of applied herbicide 320 g/ha
In short: as §5

barnyard grass [20] = experiment: Test Example 4: herbicidal effect by soil treatment (Table 19, symbol H); type: in vivo, barnyard grass (Echinochloa crus-galli); conditions: amount of applied herbicide 320 g/ha
In short: as §5

wild oat [21] = experiment: Test Example 4: herbicidal effect by soil treatment (Table 19, symbol I); type: in vivo, wild oat (Avena fatua); conditions: amount of applied herbicide 320 g/ha
In short: as §5

blackgrass [22] = experiment: Test Example 4: herbicidal effect by soil treatment (Table 19, symbol J); type: in vivo, blackgrass (Alopecurus myosuroides); conditions: amount of applied herbicide 320 g/ha
In short: as §5

Italian ryegrass [23] = experiment: Test Example 4: herbicidal effect by soil treatment (Table 19, symbol K); type: in vivo, Italian ryegrass (Lolium multiflorum); conditions: amount of applied herbicide 320 g/ha
In short: as §5

velvetleaf [24] = experiment: Test Example 4: herbicidal effect by soil treatment (Table 19, symbol M); type: in vivo, velvetleaf (Abutilon theophrasti); conditions: amount of applied herbicide 320 g/ha
In short: as §5

redroot pigweed [25] = experiment: Test Example 4: herbicidal effect by soil treatment (Table 19, symbol N); type: in vivo, redroot pigweed (Amaranthus retroflexus); conditions: amount of applied herbicide 320 g/ha
In short: as §5

lambsquarters [26] = experiment: Test Example 4: herbicidal effect by soil treatment (Table 19, symbol O); type: in vivo, lambsquarters (Chenopodium album); conditions: amount of applied herbicide 320 g/ha
In short: as §5

false cleavers [27] = experiment: Test Example 4: herbicidal effect by soil treatment (Table 19, symbol Q); type: in vivo, false cleavers (Galium spurium); conditions: amount of applied herbicide 320 g/ha
Source text: [Test Example 4] Herbicidal Effect Test by Soil Treatment
Sterilized diluvial soil was placed in a plastic box having a length of 21 cm, a width of 13 cm, and a depth of 7 cm. The seeds of each of southern crabgrass, green foxtail, barnyard grass, wild oat, blackgrass, Italian ryegrass, windgrass, velvetleaf, redroot pigweed, lambsquarters, chickweed, false cleavers, persian speedwell, corn, soybean, rice, wheat, beet, and rapeseed were sowed in a spot-like manner and covered with the soil having a thickness of about 1.5 cm. Subsequently, the emulsion agent of the compound of the present invention prepared according to Formulation Example 2 was diluted with water so as to achieve a predetermined herbicide amount, and the diluted emulsion agent was uniformly applied to the surface of the soil with a small-sized spray. The plastic box was placed in a greenhouse at 25° C. to 30° C. for growth of the plants. Three weeks after the herbicide application, the effect of the herbicide on each plant was evaluated according to the criteria of Test Example 1.

[28] = evaluated three weeks after application
[29] = amount of applied herbicide 320 g/ha

COCCOCOc1c(C)nn(C)c(=O)c1-c1c(-c2ccc(OCc3ccccc3)cc2)sc2ccc(F)cc12 [2-064]
Herbicidal effect on A: late watergrass (grade 0-5) (late watergrass [1]): 4 (Herbicidal rate of 70% or more and less than 90%)
Herbicidal effect on B: Japanese bulrush (grade 0-5) (Japanese bulrush [2]): 4 (Herbicidal rate of 70% or more and less than 90%)
Herbicidal effect on C: oval-leafed pondweed (grade 0-5) (oval-leafed pondweed [3]): 3 (Herbicidal rate of 40% or more and less than 70%)
herbicidal effect rating, A: late watergrass (late watergrass [4]): 3 (Herbicidal rate of 40% or more and less than 70%)
herbicidal effect rating, B: Japanese bulrush (Japanese bulrush [5]): 3 (Herbicidal rate of 40% or more and less than 70%)
herbicidal effect rating, C: oval-leafed pondweed (oval-leafed pondweed [6]): 0 (Herbicidal rate of 5% or less (almost no effect))
herbicidal effect on H (barnyard grass), rating 0-5 (barnyard grass [7]; 320 g/ha): 3 (Herbicidal rate of 40% or more and less than 70%)
herbicidal effect on D (Chinese sprangletop), rating 0-5 (Chinese sprangletop; 320 g/ha): 3 (Herbicidal rate of 40% or more and less than 70%)
herbicidal effect on E (rice flat sedge), rating 0-5 (rice flat sedge; 320 g/ha): 0 (Herbicidal rate of 5% or less (almost no effect))
herbicidal effect on F: southern crabgrass (southern crabgrass [8]; [28]): 3 (Herbicidal rate of 40% or more and less than 70%)
herbicidal effect on G: green foxtail (green foxtail [9]; [28]): 3 (Herbicidal rate of 40% or more and less than 70%)
herbicidal effect on H: barnyard grass (barnyard grass [10]; [28]): 3 (Herbicidal rate of 40% or more and less than 70%)
herbicidal effect on I: wild oat (wild oat [11]; [28]): 0 (Herbicidal rate of 5% or less (almost no effect))
herbicidal effect on J: blackgrass (blackgrass [12]; [28]): 0 (Herbicidal rate of 5% or less (almost no effect))
herbicidal effect on K: Italian ryegrass (Italian ryegrass [13]; [28]): 0 (Herbicidal rate of 5% or less (almost no effect))
herbicidal effect on L: windgrass (windgrass; [28]): 0 (Herbicidal rate of 5% or less (almost no effect))
herbicidal effect on M: velvetleaf (velvetleaf [14]; [28]): 3 (Herbicidal rate of 40% or more and less than 70%)
herbicidal effect on N: redroot pigweed (redroot pigweed [15]; [28]): 5 (Herbicidal rate of 90% or more (almost completely withered))
herbicidal effect on O: lambsquarters (lambsquarters [16]; [28]): 4 (Herbicidal rate of 70% or more and less than 90%)
herbicidal effect on P: chickweed (chickweed; [28]): 4 (Herbicidal rate of 70% or more and less than 90%)
herbicidal effect on Q: false cleavers (false cleavers [17]): 4 (Herbicidal rate of 70% or more and less than 90%)
herbicidal effect on R: persian speedwell (persian speedwell; [28]): 4 (Herbicidal rate of 70% or more and less than 90%)

Cc1nn(C)c(=O)c(-c2c(-c3ccc(F)cc3)sc3cc(Cl)ccc23)c1O [3-031]
herbicidal effect on H: barnyard grass (barnyard grass [7]; [29]): 5 (Herbicidal rate of 90% or more (almost completely withered))
herbicidal effect on D: Chinese sprangletop (Chinese sprangletop; [29]): 2 (Herbicidal rate of 20% or more and less than 40%)
herbicidal effect on E: rice flat sedge (rice flat sedge; [29]): 3 (Herbicidal rate of 40% or more and less than 70%)
F: southern crabgrass, herbicidal effect grade (southern crabgrass [18]): 3 (Herbicidal rate of 40% or more and less than 70%)
G: green foxtail, herbicidal effect grade (green foxtail [19]): 4 (Herbicidal rate of 70% or more and less than 90%)
H: barnyard grass, herbicidal effect grade (barnyard grass [20]): 3 (Herbicidal rate of 40% or more and less than 70%)
I: wild oat, herbicidal effect grade (wild oat [21]): 1 (Herbicidal rate of 5% or more and less than 20%)
J: blackgrass, herbicidal effect grade (blackgrass [22]): 0 (Herbicidal rate of 5% or less (almost no effect))
K: Italian ryegrass, herbicidal effect grade (Italian ryegrass [23]): 3 (Herbicidal rate of 40% or more and less than 70%)
M: velvetleaf, herbicidal effect grade (velvetleaf [24]): 2 (Herbicidal rate of 20% or more and less than 40%)
N: redroot pigweed, herbicidal effect grade (redroot pigweed [25]): 3 (Herbicidal rate of 40% or more and less than 70%)
O: lambsquarters, herbicidal effect grade (lambsquarters [26]): 4 (Herbicidal rate of 70% or more and less than 90%)
Q: false cleavers, herbicidal effect grade (false cleavers [27]): 4 (Herbicidal rate of 70% or more and less than 90%)
F: southern crabgrass, herbicidal effect grade (southern crabgrass [8]; three weeks after application): 4 (Herbicidal rate of 70% or more and less than 90%)
G: green foxtail, herbicidal effect grade (green foxtail [9]; three weeks after application): 5 (Herbicidal rate of 90% or more (almost completely withered))
H: barnyard grass, herbicidal effect grade (barnyard grass [10]; three weeks after application): 4 (Herbicidal rate of 70% or more and less than 90%)
I: wild oat, herbicidal effect grade (wild oat [11]; three weeks after application): 5 (Herbicidal rate of 90% or more (almost completely withered))
J: blackgrass, herbicidal effect grade (blackgrass [12]; three weeks after application): 4 (Herbicidal rate of 70% or more and less than 90%)
K: Italian ryegrass, herbicidal effect grade (Italian ryegrass [13]; three weeks after application): 5 (Herbicidal rate of 90% or more (almost completely withered))
L: windgrass, herbicidal effect grade (windgrass; three weeks after application): 5 (Herbicidal rate of 90% or more (almost completely withered))
M: velvetleaf, herbicidal effect grade (velvetleaf [14]; three weeks after application): 5 (Herbicidal rate of 90% or more (almost completely withered))
N: redroot pigweed, herbicidal effect grade (redroot pigweed [15]; three weeks after application): 5 (Herbicidal rate of 90% or more (almost completely withered))
O: lambsquarters, herbicidal effect grade (lambsquarters [16]; three weeks after application): 4 (Herbicidal rate of 70% or more and less than 90%)
P: chickweed, herbicidal effect grade (chickweed; three weeks after application): 5 (Herbicidal rate of 90% or more (almost completely withered))
R: persian speedwell, herbicidal effect grade (persian speedwell; three weeks after application): 5 (Herbicidal rate of 90% or more (almost completely withered))
